These results are taken from publication PMC7243443 (Journal of natural products, 2020).

What is called IC50 is the concentration that inhibits the measured activity by half.

Data set [1] relates to small panel of human cancer cell lines. The note with it: read-out: IC50, cytotoxicity against a small panel of human cancer cell lines; cited from earlier work.
The subject of data set [2] is Na^+/K^+-ATPase (adenosine 5′-triphosphatase from porcine cerebral cortex). Nature of the data set: Na+/K+-ATPase activity assay. The data set is classed as biochemical. As to conditions: 7: at concentrations less than 100 μM.
Another data set has as its system ipsilateral kidney. The note with it: 12–27 kg female dogs, renal-artery infusion, 0.05–0.08 mg/kg; cited from earlier work.
Data set [3] has as its system glucose uptake in H1299 human lung cancer cells. Nature of the data set: Glucose uptake assay. The data set is classed as cell-based. The note with it: 30 μM, 15 min.

Consider `C[C@H]1O[C@@H](O[C@H]2[C@@H](O)C[C@H](O[C@H]3[C@@H](O)C[C@H](O[C@H]4CC[C@@]5(C)[C@H](CC[C@@H]6[C@@H]5C[C@@H](O)[C@]5(C)[C@@H](C7=CC(=O)OC7)CC[C@]65O)C4)O[C@@H]3C)O[C@@H]2C)C[C@H](O)[C@@H]1O` [compound 1, (+)-Digoxin], for which, in data set [1], the IC50 was 0.04 to 0.2 µM. Also, the “inhibition of Na+/K+-ATPase activity (in words)” value in data set [2] was “inhibited Na^+/K^+-ATPase activity in a concentration-dependent manner”. Also, in the data set with ipsilateral kidney, the “excretion of Ca2+, Mg2+, and PO4 3- by the ipsilateral kidney (in words)” value is “enhanced”; the “maximal transport of glucose (in words)” value is “no change in the maximal transport of glucose”. In addition, the “inhibition of glucose uptake / glucose transport (in words)” value in data set [3] is given as “did not inhibit glucose uptake”. The “inhibition of glucose uptake / glucose transport (in words)” value in data set [3] (listed as (+)-digoxin) is “did not inhibit glucose transport”.
